Measured values: patent US8222270B2 (Medicis Pharmaceutical Corporation, priority 2008, dated 2012)

Tests used:
[1] = Stability of calibration standards in spent receiver fluid; assay type: physicochemical; settings: vs T = 0
[2] = 52-week dermal photoco-carcinogenicity study; assay type: in vivo, hairless mice; settings: 3×/week, 40 weeks, concurrent UV radiation
Description: In a 52-week dermal photoco-carcinogenicity study, the median time to onset of skin tumor formation was decreased in hairless mice following chronic topical dosing (3×/week; 40 weeks of treatment followed by 12 weeks of observation) with concurrent exposure to UV radiation (5 days per week) with vehicle alone.
Vehicle cream enhanced UVR-induced skin tumour development.

[3] = Topical pharmacokinetics, 5 mg/kg three times per week for 4 weeks; settings: rat, in vivo

Structure (SMILES): CC(C)Cn1cnc2c(N)nc3ccccc3c21 [imiquimod, 1-(2-methylpropyl)-1H-imidazo[4,5-c]quinolin-4-amine]
- 48 h % recovered in Spent receiver fluid ([1]; Standard 42.2 μg/ml, Full thickness + placebo, 37° C.): 86.439%
- 48 h % recovered in Spent receiver fluid ([1]; Standard 42.2 μg/ml, Full thickness + placebo, Fridge): 83.976%
- 48 h % recovered in Spent receiver fluid ([1]; Standard 42.2 μg/ml, Full thickness + placebo, RT): 84.144%
- 48 h % recovered in Spent receiver fluid ([1]; Standard 42.2 μg/ml, Full thickness, 37° C.): 95.939%
- 48 h % recovered in Spent receiver fluid ([1]; Standard 42.2 μg/ml, Full thickness, Fridge): 95.103%
- 48 h % recovered in Spent receiver fluid ([1]; Standard 42.2 μg/ml, Full thickness, RT): 95.805%
- 48 h % recovered in Spent receiver fluid ([1]; Standard 52.75 μg/ml, Epidermal sheet + placebo, 37° C.): 86.906%
- 48 h % recovered in Spent receiver fluid ([1]; Standard 52.75 μg/ml, Epidermal sheet + placebo, Fridge): 85.635%
- 48 h % recovered in Spent receiver fluid ([1]; Standard 52.75 μg/ml, Epidermal sheet + placebo, RT): 88.169%
- 48 h % recovered in Spent receiver fluid ([1]; Standard 52.75 μg/ml, Epidermal sheet, 37° C.): 90.943%
- 48 h % recovered in Spent receiver fluid ([1]; Standard 52.75 μg/ml, Epidermal sheet, Fridge): 87.669%
- 48 h % recovered in Spent receiver fluid ([1]; Standard 52.75 μg/ml, Epidermal sheet, RT): 89.096%
- 48 h % recovered in Spent receiver fluid ([1]; Standard 52.75 μg/ml, Full thickness + placebo, 37° C.): 93.779%
- 48 h % recovered in Spent receiver fluid ([1]; Standard 52.75 μg/ml, Full thickness + placebo, Fridge): 91.776%
- 48 h % recovered in Spent receiver fluid ([1]; Standard 52.75 μg/ml, Full thickness + placebo, RT): 92.027%
- 48 h % recovered in Spent receiver fluid ([1]; Standard 52.75 μg/ml, Full thickness, 37° C.): 95.282%
- 48 h % recovered in Spent receiver fluid ([1]; Standard 52.75 μg/ml, Full thickness, Fridge): 92.317%
- 48 h % recovered in Spent receiver fluid ([1]; Standard 52.75 μg/ml, Full thickness, RT): 92.152%
- 48 h % recovered in Spent receiver fluid ([1]; Standard 84.4 μg/ml, Epidermal sheet + placebo, 37° C.): 98.178%
- 48 h % recovered in Spent receiver fluid ([1]; Standard 84.4 μg/ml, Epidermal sheet + placebo, Fridge): 95.620%
- 48 h % recovered in Spent receiver fluid ([1]; Standard 84.4 μg/ml, Epidermal sheet + placebo, RT): 96.033%
- 48 h % recovered in Spent receiver fluid ([1]; Standard 84.4 μg/ml, Epidermal sheet, 37° C.): 82.694%
- 48 h % recovered in Spent receiver fluid ([1]; Standard 84.4 μg/ml, Epidermal sheet, Fridge): 81.350%
- 48 h % recovered in Spent receiver fluid ([1]; Standard 84.4 μg/ml, Epidermal sheet, RT): 82.276%
- 48 h % recovered in Spent receiver fluid ([1]; Standard 84.4 μg/ml, Full thickness + placebo, 37° C.): 85.629%
- 48 h % recovered in Spent receiver fluid ([1]; Standard 84.4 μg/ml, Full thickness + placebo, Fridge): 84.561%
- 48 h % recovered in Spent receiver fluid ([1]; Standard 84.4 μg/ml, Full thickness + placebo, RT): 84.421%
- 48 h % recovered in Spent receiver fluid ([1]; Standard 84.4 μg/ml, Full thickness, 37° C.): 101.010%
- 48 h % recovered in Spent receiver fluid ([1]; Standard 84.4 μg/ml, Full thickness, Fridge): 98.841%
- 48 h % recovered in Spent receiver fluid ([1]; Standard 84.4 μg/ml, Full thickness, RT): 99.790%
- 48 h % recovered in Spent receiver fluid ([1]; Standard 105.5 μg/ml, Epidermal sheet + placebo, 37° C.): 84.903%
- 48 h % recovered in Spent receiver fluid ([1]; Standard 105.5 μg/ml, Epidermal sheet + placebo, Fridge): 83.833%
- 48 h % recovered in Spent receiver fluid ([1]; Standard 105.5 μg/ml, Epidermal sheet + placebo, RT): 84.515%
- 48 h % recovered in Spent receiver fluid ([1]; Standard 105.5 μg/ml, Epidermal sheet, 37° C.): 91.501%
- 48 h % recovered in Spent receiver fluid ([1]; Standard 105.5 μg/ml, Epidermal sheet, Fridge): 90.465%
- 48 h % recovered in Spent receiver fluid ([1]; Standard 105.5 μg/ml, Epidermal sheet, RT): 92.089%
- 48 h % recovered in Spent receiver fluid ([1]; Standard 105.5 μg/ml, Full thickness + placebo, 37° C.): 91.704%
- 48 h % recovered in Spent receiver fluid ([1]; Standard 105.5 μg/ml, Full thickness + placebo, Fridge): 88.242%
- 48 h % recovered in Spent receiver fluid ([1]; Standard 105.5 μg/ml, Full thickness + placebo, RT): 88.546%
- 48 h % recovered in Spent receiver fluid ([1]; Standard 105.5 μg/ml, Full thickness, 37° C.): 92.278%
- 48 h % recovered in Spent receiver fluid ([1]; Standard 105.5 μg/ml, Full thickness, Fridge): 90.545%
- 48 h % recovered in Spent receiver fluid ([1]; Standard 105.5 μg/ml, Full thickness, RT): 92.275%
- 48 h % recovered in Spent receiver fluid ([1]; Standard […] μg/ml, Epidermal sheet + placebo, 37° C.): 89.945%
- 48 h % recovered in Spent receiver fluid ([1]; Standard […] μg/ml, Epidermal sheet + placebo, Fridge): 84.046%
- 48 h % recovered in Spent receiver fluid ([1]; Standard […] μg/ml, Epidermal sheet + placebo, RT): 85.095%
- 48 h % recovered in Spent receiver fluid ([1]; Standard […] μg/ml, Epidermal sheet, 37° C.): 97.099%
- 48 h % recovered in Spent receiver fluid ([1]; Standard […] μg/ml, Epidermal sheet, Fridge): 93.180%
- 48 h % recovered in Spent receiver fluid ([1]; Standard […] μg/ml, Epidermal sheet, RT): 94.971%
- 48 h % recovered in Spent receiver fluid ([1]; Standard […] μg/ml, Full thickness + placebo, 37° C.): 90.798%
- 48 h % recovered in Spent receiver fluid ([1]; Standard […] μg/ml, Full thickness + placebo, Fridge): 88.307%
- 48 h % recovered in Spent receiver fluid ([1]; Standard […] μg/ml, Full thickness + placebo, RT): 86.897%
- 48 h % recovered in Spent receiver fluid ([1]; Standard […] μg/ml, Full thickness, 37° C.): 97.826%
- 48 h % recovered in Spent receiver fluid ([1]; Standard […] μg/ml, Full thickness, Fridge): 94.989%
- 48 h % recovered in Spent receiver fluid ([1]; Standard […] μg/ml, Full thickness, RT): 93.522%
- Effect on tumor development beyond the vehicle effect [2]: No additional effect on tumor development beyond the vehicle effect
- Imiquimod in serum [3]: not quantifiable
